The species entered for one test is Bos taurus. The test can be described thus: Displacement of ethidium bromide from calf thymus DNA by fluorescence binding assay.
The test system of test [1] is Vesicular stomatitis virus. In words: Antiviral activity against Vesicular stomatitis virus at 0.2 to 620 uM after 24 hrs post infection relative to control. The test is classed as functional.

The compound `O=C1c2cccc3cccc(c23)C(=O)N1NCCN1CCOCC1` displayed a log Ka in the test listed under Bos taurus of 5.38.
`CCN(CC)CCNC(=O)CCCN1C(=O)c2cccc3cccc(c23)C1=O`: in test [1], the Activity turned out to be 20%. Also, the log Ka in the test listed under Bos taurus was 6.13.
With `CCCN(CCC)CCCCn1c2ccccc2c2nc3ccccc3nc21`, the Activity in test [1] worked out at 13%. This compound also gave a log Ka in the test filed under Bos taurus of 5.49.
Compound `CN(C)CCn1c2ccc3ccccc3c2c2nc3ccccc3nc21` had an Activity in test [1] of 21%. The compound further gave a log Ka in the test listed under Bos taurus of 6.94.
For `c1ccc2nc3c(nc2c1)c1ccccc1n3CCN1CCOCC1` the same measures were 85% and 5.89.
Take `CCN(CC)CCN1C(=O)/C(=N\NC(=O)CN2CCCCCC2)c2ccccc21`: in the test listed under Bos taurus, the log Ka is 6.32.
Take `O=C(Cn1c2ccccc2c2nc3ccccc3nc21)NCCN1CCCCC1`: the Activity in test [1] is 80%. This compound also displayed a log Ka in the test listed under Bos taurus of 5.15.
As to `CCN(CC)CCN1C(=O)/C(=N\NC(=O)CN2CCCCC2)c2ccccc21`, the log Ka in the test filed under Bos taurus turned out to be 5.74.
Compound `CCN(CC)CCCNC(=O)c1cc2c(ccc3ccccc32)o1` yielded a log Ka in the test listed under Bos taurus of 6.12.
In test [1], `CC1CCN(CC(=O)N/N=C2\C(=O)Nc3ccccc32)CC1` displayed an Activity of 60%. Moreover, the log Ka in the test listed under Bos taurus turned out to be 5.4.
Compound `CN(C)CCCNC(=O)CCCN1C(=O)c2cccc3cccc(c23)C1=O` had a log Ka in the test listed under Bos taurus of 5.95.
With `CCN(CC)CCNC(=O)c1cc2c(ccc3ccccc32)o1`, in the test filed under Bos taurus, the log Ka is 5.77.
On to `CCN(CC)CCCCCCn1c2ccccc2c2nc3ccccc3nc21`, for which the Activity in test [1] is 75%. The log Ka in the test listed under Bos taurus was 5.65.
For the compound `OCCNCCn1c2ccc3ccccc3c2c2nc3ccccc3nc21`, the Activity in test [1] is recorded as 20%. Further, the log Ka in the test listed under Bos taurus was 6.8.
The compound `c1ccc2c(c1)c1nc3c(nc1n2CCN1CCCCC1)CCCC3` registered an Activity in test [1] of 65%.
With `CCN(CC)CCN1C(=O)/C(=N\NC(=O)CN2CCN(C)CC2)c2ccccc21`, in test [1], the Activity is given as 0%. In the test listed under Bos taurus, this compound returned a log Ka of 5.99.
In test [1], `CCN(CC)CCCNC(=O)CCN1C(=O)c2cccc3cccc(c23)C1=O` gave an Activity of 10%. The compound also came in with a log Ka in the test filed under Bos taurus of 5.79.
As to `O=C(CN1CCOCC1)NN1C(=O)c2cccc3cccc(c23)C1=O`, the log Ka in the test filed under Bos taurus was determined as 5.34.
The same measure, in the same setting: the value for `O=C(CN1C(=O)c2cccc3cccc(c23)C1=O)NCCN1CCOCC1` was 5.68.
`c1ccc2c(c1)ccc1c2c2nc3ccccc3nc2n1CCN1CCCCC1` registered an Activity in test [1] of 20%. Moreover, the log Ka in the test listed under Bos taurus turned out to be 6.61.
In the case of `CC1CCN(CCCn2c3ccccc3c3nc4ccccc4nc32)CC1`, the Activity in test [1] is 74%. In the test listed under Bos taurus, this compound displayed a log Ka of 6.07.
Turning to `O=C(CN1CCCC1)N/N=C1\C(=O)Nc2ccccc21`, the log Ka in the test listed under Bos taurus was found to be 5.58.
Same read-out and setting: to `O=C(CCCCCN1C(=O)c2cccc3cccc(c23)C1=O)NCCN1CCOCC1` belongs 5.53.
`O=C(CCN1CCCCC1)N/N=C1\C(=O)Nc2ccccc21`: the Activity in test [1] is 0%. Besides, the log Ka in the test filed under Bos taurus came to 5.92.
`O=C(Cn1c2ccccc2c2nc3ccccc3nc21)OCCCN1CCOCC1` returned an Activity in test [1] of 15%. This compound had a log Ka in the test listed under Bos taurus of 5.14.
The corresponding values for `CC1CCN(CCC(=O)N/N=C2\C(=O)Nc3ccccc32)CC1` are 80% and 5.91.
Take `CN1CCN(CCCCn2c3ccccc3c3nc4ccccc4nc32)CC1`: the Activity in test [1] is 10%. This compound showed a log Ka in the test filed under Bos taurus of 6.04.
`O=C(CCN1C(=O)c2cccc3cccc(c23)C1=O)NCCCN1CCOCC1` displayed an Activity in test [1] of 30%. In addition, the log Ka in the test listed under Bos taurus amounted to 5.72.
In the case of `O=C(CCCn1c2ccccc2c2nc3ccccc3nc21)NCCNCCO`, the log Ka in the test listed under Bos taurus amounted to 5.05.
In turn, `CCN(CC)CCCCCn1c2ccccc2c2nc3ccccc3nc21` displayed an Activity in test [1] of 12%. The compound further yielded a log Ka in the test filed under Bos taurus of 5.61.
Regarding `CCN(CC)CCCCn1c2ccccc2c2nc3ccccc3nc21`, the Activity in test [1] was determined as 10%. Besides, in the test filed under Bos taurus, the log Ka came out at 6.22.
The compound `CN1CCN(CCn2c3ccccc3c3nc4c(nc32)CCCC4)CC1` returned an Activity in test [1] of 100%.
Take `c1ccc2nc3c(nc2c1)c1ccccc1n3CCCN1CCCCC1`: in test [1], the Activity is listed as 28%. The compound also registered a log Ka in the test listed under Bos taurus of 6.04.
The compound `c1ccc2nc3c(nc2c1)c1ccccc1n3CCCCCN1CCCCC1` gave an Activity in test [1] of 89%. Moreover, the log Ka in the test filed under Bos taurus came to 5.68.
`CN1CCN(CCn2c3ccc4ccccc4c3c3nc4ccccc4nc32)CC1` showed an Activity in test [1] of 17%. Moreover, the log Ka in the test filed under Bos taurus worked out at 6.58.
The compound `O=C(CCCn1c2ccccc2c2nc3ccccc3nc21)NCCN1CCNCC1` returned a log Ka in the test listed under Bos taurus of 4.97.
In turn, `CN1CCN(CC(=O)N/N=C2\C(=O)Nc3ccc4ccccc4c32)CC1` returned an Activity in test [1] of 70%. This compound gave a log Ka in the test filed under Bos taurus of 5.99.
In turn, `c1ccc2nc3c(nc2c1)c1ccccc1n3CCN1CCCCC1` had an Activity in test [1] of 90%. Besides, the log Ka in the test listed under Bos taurus turned out to be 6.01.
Regarding `CCCCN(CC)CCn1c2ccccc2c2nc3ccccc3nc21`, in test [1], the Activity amounted to 50%. The log Ka in the test filed under Bos taurus stood at 6.01.
The corresponding values for `O=C(CN1CCCCCC1)N/N=C1\C(=O)Nc2ccccc21` are 80% and 5.49.
In test [1], `CCN(CC)CCN1C(=O)/C(=N\NC(=O)CCN2CCCCC2)c2ccccc21` had an Activity of 100%. Besides, in the test filed under Bos taurus, the log Ka is 5.39.
Regarding `CN(C)CCCNC(=O)CCN1C(=O)c2cccc3cccc(c23)C1=O`, the log Ka in the test listed under Bos taurus turned out to be 5.92.
In test [1], `c1ccc2nc3c(nc2c1)c1ccccc1n3CCCCN1CCOCC1` yielded an Activity of 35%. In the test listed under Bos taurus, this compound came in with a log Ka of 5.94.
For `CCN(CC)CCCn1c2ccccc2c2nc3ccccc3nc21`, in test [1], the Activity was determined as 30%. Moreover, the log Ka in the test listed under Bos taurus came to 6.11.
For `O=C(CN1C(=O)c2cccc3cccc(c23)C1=O)NCCCN1CCOCC1`, the log Ka in the test filed under Bos taurus stood at 5.46.
Take `OCCNCCCCn1c2ccccc2c2nc3ccccc3nc21`: in test [1], the Activity was 32%. For the same compound, in the test filed under Bos taurus, the log Ka came out at 5.96.
In the test filed under Bos taurus, `CN(C)CCCNC(=O)CN1C(=O)c2cccc3cccc(c23)C1=O` showed a log Ka of 5.63.
`CCN(CC)CCN1C(=O)/C(=N\NC(=O)CCN2CCN(C)CC2)c2ccccc21` returned an Activity in test [1] of 100%. Moreover, the log Ka in the test listed under Bos taurus was found to be 6.15.
In turn, `CC1CCN(CC(=O)N/N=C2/C(=O)Nc3ccc4ccccc4c32)CC1` had an Activity in test [1] of 40%. Besides, the log Ka in the test filed under Bos taurus was 7.11.
In turn, `CCN(CC)CCOC(=O)Cn1c2ccccc2c2nc3ccccc3nc21` gave an Activity in test [1] of 45%. In the test filed under Bos taurus, this compound showed a log Ka of 5.42.
The corresponding values for `CCN(CC)CC(=O)N/N=C1\C(=O)Nc2ccccc21` are 80% and 5.96.
As for `O=C(CN1CCCCC1)N/N=C1\C(=O)Nc2ccccc21`, in test [1], the Activity is 100%. Also, the log Ka in the test listed under Bos taurus stood at 5.64.
`O=C(CCCCCN1C(=O)c2cccc3cccc(c23)C1=O)NCCCN1CCOCC1` yielded an Activity in test [1] of 50%. This compound also displayed a log Ka in the test listed under Bos taurus of 6.03.
With `OCCNCCCn1c2ccccc2c2nc3ccccc3nc21`, the Activity in test [1] stood at 37%. Moreover, the log Ka in the test listed under Bos taurus stood at 6.4.
The compound `CCN(CC)CCNC(=O)CN1C(=O)c2cccc3cccc(c23)C1=O` had a log Ka in the test filed under Bos taurus of 5.54.
With `CCCN(CCC)CCCn1c2ccccc2c2nc3ccccc3nc21`, the Activity in test [1] was determined as 41%. The compound further returned a log Ka in the test listed under Bos taurus of 6.13.
In turn, `CCN(CC)CCNC(=O)CCCCCN1C(=O)c2cccc3cccc(c23)C1=O` showed a log Ka in the test filed under Bos taurus of 5.49.
Turning to `O=C1c2cccc3cccc(c23)C(=O)N1CCN1CCCCC1`, the log Ka in the test filed under Bos taurus amounted to 5.29.
In turn, `CC1CCCCN1CCn1c2ccc3ccccc3c2c2nc3ccccc3nc21` (stereo not given) registered an Activity in test [1] of 20%. The compound also returned a log Ka in the test filed under Bos taurus of 6.83.
For `CCN(CC)CCN1C(=O)/C(=N\NC(=O)CN2CCOCC2)c2ccccc21` the same measures were 8% and 6.21.
In the test listed under Bos taurus, `CN1CCN(CCCCCCn2c3ccccc3c3nc4ccccc4nc32)CC1` showed a log Ka of 6.45.
As to `O=C1c2cccc3cccc(c23)C(=O)N1CCCN1CCOCC1`, in the test listed under Bos taurus, the log Ka worked out at 6.93.
Take `O=C(CCCn1c2ccccc2c2nc3ccccc3nc21)NCCCNCCO`: the log Ka in the test filed under Bos taurus is 5.09.
Take `c1ccc2c(c1)c1nc3c(nc1n2CCN1CCOCC1)CCCC3`: the Activity in test [1] is given as 66%.
In the case of `O=C1c2cccc3cccc(c23)C(=O)N1CCNCCO`, the log Ka in the test filed under Bos taurus turned out to be 5.57.
For the compound `CN(C)CCCN1C(=O)c2cccc3cccc(c23)C1=O`, in the test filed under Bos taurus, the log Ka was determined as 7.07.
`CCN(CC)CCN1C(=O)c2cccc3cccc(c23)C1=O` returned a log Ka in the test filed under Bos taurus of 6.98.
Same read-out and setting: to `O=C(Cn1c2ccccc2c2nc3ccccc3nc21)NCCN1CCNCC1` belongs 5.72.
Still for that read-out and setting: to `CNCCCN1C(=O)c2cccc3cccc(c23)C1=O` belongs 5.57; to `O=C(CN1CCOCC1)N/N=C1\C(=O)Nc2ccccc21`, 5.28; to `O=C(NCCN1CCOCC1)c1cc2c(ccc3ccccc32)o1`, 4.58.
Compound `CCN(CC)CCCNC(=O)CN1C(=O)c2cccc3cccc(c23)C1=O` came in with a log Ka in the test filed under Bos taurus of 5.31.
The same measure, in the same setting: the value for `CCN(CC)CCN1C(=O)/C(=N/NC(=O)CCN2CCCCCC2)c2ccccc21` was 6.03.
In the test filed under Bos taurus, `CN1CCN(CCCCCn2c3ccccc3c3nc4ccccc4nc32)CC1` registered a log Ka of 6.23.
In the test filed under Bos taurus, `CCN(CC)CCCNC(=O)CCCn1c2ccccc2c2nc3ccccc3nc21` registered a log Ka of 4.77.
`CN(C)CCn1c2ccccc2c2nc3c(nc21)CCCC3`: the Activity in test [1] was determined as 88%.
In turn, `CCCN(CCC)CCn1c2ccccc2c2nc3c(nc21)CCCC3` had an Activity in test [1] of 90%.
On to `CN(C)CCCNC(=O)c1cc2c(ccc3ccccc32)o1`, for which the log Ka in the test filed under Bos taurus worked out at 5.48.
Compound `O=C(CN1CCCCC1)NN1C(=O)c2cccc3cccc(c23)C1=O` returned a log Ka in the test listed under Bos taurus of 6.2.
Compound `c1ccc2nc3c(nc2c1)c1ccccc1n3CCCCCCN1CCCCC1` showed a log Ka in the test filed under Bos taurus of 5.95.
The compound `CCN(CC)CCCN1C(=O)c2cccc3cccc(c23)C1=O` showed a log Ka in the test filed under Bos taurus of 6.57.
For the compound `CC1CCN(CCn2c3ccccc3c3nc4c(nc32)CCCC4)CC1`, in test [1], the Activity is 95%.
Turning to `O=C(NCCCN1CCOCC1)c1cc2c(ccc3ccccc32)o1`, the log Ka in the test filed under Bos taurus was determined as 5.64.
On to `CCN(CC)CC(=O)NN1C(=O)c2cccc3cccc(c23)C1=O`, for which, in the test listed under Bos taurus, the log Ka is 5.6.
Compound `CCN(CC)CCN1C(=O)/C(=N\NC(=O)CCN2CCOCC2)c2ccccc21` showed a log Ka in the test filed under Bos taurus of 6.08.

Values taken from ChEMBL document CHEMBL4052722, “Virtual screening, synthesis and biological evaluation of DNA intercalating antiviral agents” (Bioorg Med Chem Lett, 2017).
